Laboratory results from US8119647B2, “Fused pyrimidineone compounds as TRPV3 modulators” (Glenmark Pharmaceuticals S.A., priority 2008, dated 2012).
Where two headings read alike, the source gives them in different places.

Molecular target: T1, Human TRPV3 (Homo sapiens, UniProt Q8NET8)
T1 construct: expressed in transfected cells; host or cells: CHO cells (G-418 selection)
T1 sequence (Q8NET8 1-790): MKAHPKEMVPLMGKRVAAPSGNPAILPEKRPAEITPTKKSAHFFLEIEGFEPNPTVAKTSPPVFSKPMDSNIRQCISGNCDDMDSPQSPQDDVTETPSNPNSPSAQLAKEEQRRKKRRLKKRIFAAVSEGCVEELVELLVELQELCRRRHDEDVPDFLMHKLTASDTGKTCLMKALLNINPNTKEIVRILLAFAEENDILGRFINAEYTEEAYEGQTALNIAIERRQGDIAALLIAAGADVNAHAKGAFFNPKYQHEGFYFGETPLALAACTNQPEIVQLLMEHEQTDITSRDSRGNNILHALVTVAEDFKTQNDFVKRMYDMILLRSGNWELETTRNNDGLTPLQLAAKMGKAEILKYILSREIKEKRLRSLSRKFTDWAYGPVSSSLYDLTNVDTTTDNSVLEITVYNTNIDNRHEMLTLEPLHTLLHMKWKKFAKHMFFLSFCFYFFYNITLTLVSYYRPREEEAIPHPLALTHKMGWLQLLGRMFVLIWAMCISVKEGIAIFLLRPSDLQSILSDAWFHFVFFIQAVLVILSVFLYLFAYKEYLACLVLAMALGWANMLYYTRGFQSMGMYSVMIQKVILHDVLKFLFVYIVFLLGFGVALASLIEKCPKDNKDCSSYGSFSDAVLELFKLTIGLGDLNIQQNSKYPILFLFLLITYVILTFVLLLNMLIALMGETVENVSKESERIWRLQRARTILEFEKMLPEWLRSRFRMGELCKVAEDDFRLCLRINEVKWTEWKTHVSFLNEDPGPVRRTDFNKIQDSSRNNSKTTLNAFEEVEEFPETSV
Assay: Screening for TRPV3 antagonist using the 45Calcium uptake assay (inhibition of 2-APB induced cellular uptake of radioactive calcium)
Assay type: cell-based
Settings: for inhibition at 1 µM / Percentage inhibition at 1.0 μM: 1.0 μM test compound; for inhibition at 1 µM: read-out: Percentage inhibition at 1.0 μM; for inhibition at 10 µM: read-out: Percentage inhibition at 10.0 μM; for IC50: class symbols
In short: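 CHO cells stably expressing human TRPV3, preincubated 10 min with test compound, then 2-APB (500 μM final) plus 5 μCi/ml 45Ca2+ for 4 min in DMEM/F-12 with 1.8 mM CaCl2; 0.5% DMSO final. Lysate radioactivity by scintillation counting. IC50 by nonlinear regression of % maximal response; % inhibition at 1.0 and 10.0 μM.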

[1] = human TRPV3 expressing CHO cells, 2-APB 500 μM
[2] = 10.0 μM test compound, human TRPV3 expressing CHO cells, 2-APB 500 μM

| Structure (SMILES) | inhibition at 1 µM [1] [%] | inhibition at 10 µM [2] [%] | IC50 [1] [nM] | Percentage inhibition at 1.0 μM [1] [%] | Percentage inhibition at 10.0 μM [2] [%] | Percentage inhibition at 10.0 μM [%] |
| --- | --- | --- | --- | --- | --- | --- |
| COc1cccc(/C=C/c2nc3sc(Cl)cn3c(=O)c2-c2ccc(N(C)C)cc2)c1OCC(C)(C)C [Example 79, 2-Chloro-6-[4-(dimethylamino)phenyl]-7-[(E)-2-(2-(2,2-dimethylpropoxy)-3-methoxy-phenyl)vinyl]-5H-[1,3]thiazolo[3,2-a]pyrimidin-5-one] | 57.9 |  |  |  |  |  |
| COc1cccc(/C=C/c2nc3sc(Cl)cn3c(=O)c2-c2ccc(C#N)cc2)c1OCC(C)(C)C [Example 80, 4-{2-Chloro-7-[(E)-2-(2-(2,2-dimethylpropoxy)-3-methoxyphenyl)vinyl]-5-oxo-5H-[1,3]thiazolo[3,2-a]pyrimidin-6-yl}benzonitrile] | 69.1 | 87.7 | 500 to 1000 |  |  |  |
| COc1cccc(/C=C/c2nc3sc(Cl)cn3c(=O)c2-c2ccc(N(C)C)cc2)c1OCC(C)C [Example 81, 2-Chloro-6-[4-(dimethylamino)phenyl]-7-[(E)-2-(2-isobutoxy-3-methoxyphenyl)vinyl]-5H-[1,3]thiazolo[3,2-a]pyrimidin-5-one] | 64.3 | 78.5 | 250 to 500 |  |  |  |
| COc1cccc(/C=C/c2nc3scc(C(F)(F)F)n3c(=O)c2-c2ccc(C#N)cc2)c1OCC(C)(C)C [Example 82, 4-{7-[(E)-2-(3-Methoxy-2-neopentyloxyphenyl)-1-ethenyl]-5-oxo-3-(trifluoromethyl)-5H-[1,3]thiazolo[3,2-a]pyrimidin-6-yl}benzonitrile] | 57.4 | 70.3 |  |  |  |  |
| COc1cccc(/C=C/c2nc3sc4ccccc4n3c(=O)c2-c2ccc(C#N)cc2)c1OCCCC#N [Example 83, 4-(2-{(E)-2-[2-(3-Cyanopropoxy)-3-methoxyphenyl}-1-ethenyl}-4-oxo-4H-benzo[4,5]-[1,3]thiazolo-[3,2]pyrimidin-3-yl)benzonitrile] |  |  |  | 23.6 | 57.1 |  |
| COCCOc1c(/C=C/c2nc3sc4ccccc4n3c(=O)c2-c2ccc(C#N)cc2)cccc1OC [Example 84, 4-(2-{(E)-2-[3-Methoxy-2-(methoxyethoxy)phenyl}-1-ethenyl}-4-oxo-4H-benzo[4,5]-[1,3]thiazolo-[3,2]pyrimidin-3-yl)benzonitrile] | 83.8 | 93.7 | 250 to 500 |  |  |  |
| CCOCCOc1c(/C=C/c2nc3sc4ccccc4n3c(=O)c2-c2ccc(C#N)cc2)cccc1OC [Example 85] | 81.8 | 91.9 | < 250 |  |  |  |
| COc1cccc(/C=C/c2nc3sc4ccccc4n3c(=O)c2-c2ccc(C#N)cc2)c1OCC1CC1 [Example 86] |  |  |  | 45.5 | 75.6 |  |
| CCCCOc1c(/C=C/c2nc3sc4ccccc4n3c(=O)c2-c2ccc(C#N)cc2)cccc1OC [Example 87] |  |  |  | 34.44 | 60.79 |  |
| COc1cccc(/C=C/c2nc3sc4ccccc4n3c(=O)c2-c2ccc(C#N)cc2)c1OCCC(C)C [Example 88, 4-{2-[(E)-2-[2-(3-Methylbutoxy-3-methoxy]phenyl}-1-ethenyl]-4-oxo-4H-benzo[4,5]-[1,3]thiazolo-[3,2]pyrimidin-3-yl)benzonitrile] |  |  |  | 32.87 | 51.88 |  |
| COc1cccc(/C=C/c2nc3sc4ccccc4n3c(=O)c2-c2ccc(C#N)cc2)c1OCC1CCC1 [Example 89] |  |  |  | 26.90 | 57.53 |  |
| COc1cccc(/C=C/c2nc3sc4ccccc4n3c(=O)c2-c2ccc(C#N)cc2)c1OCc1ccccn1 [Example 90] |  |  |  | 51.24 |  | 81.57 |
| COc1cccc(/C=C/c2nc3sc4ccccc4n3c(=O)c2-c2ccc(C(F)(F)F)cc2)c1OCC1CC1 [Example 91, 2-{(E)-2-[(2-Cyclopropylmethoxy)-3-methoxyphenyl]-1-ethenyl}-3-(4-trifluoromethyl-phenyl)-4H-benzo[4,5][1,3]thiazolo-[3,2-a]pyrimidin-4-one] |  |  |  | 4.98 | 19.85 |  |
| COCCOc1c(/C=C/c2nc3sc4ccccc4n3c(=O)c2-c2ccc(C(F)(F)F)cc2)cccc1OC [Example 92, 2-{(E)-2-[(2-Methoxyethoxy)-3-methoxyphenyl]-1-ethenyl}-3-(4-trifluoromethylphenyl)-4H-benzo[4,5][1,3]thiazolo-[3,2-a]pyrimidin-4-one] |  |  |  | 23.11 | 47.48 |  |
| CCOCCOc1c(/C=C/c2nc3sc4ccccc4n3c(=O)c2-c2ccc(C(F)(F)F)cc2)cccc1OC [Example 93, 2-{(E)-2-[(2-Ethoxyethoxy)-3-methoxyphenyl]-1-ethenyl}-3-(4-trifluoromethyl-phenyl)-4H-benzo[4,5][1,3]thiazolo-[3,2-a]pyrimidin-4-one] |  |  |  | 6.53 | 40.18 |  |
| COc1cc(/C=C/c2nc3sc4ccccc4n3c(=O)c2-c2ccc(C(F)(F)F)cc2)ccc1OCCCC#N [Example 94, 2-{(E)-2-[(3-Cyanopropoxy-3-methoxy)phenyl]-1-ethenyl}-3-(4-trifluoromethyl-phenyl)-4H-benzo[4,5][1,3]thiazolo-[3,2-a]pyrimidin-4-one] |  |  |  | 5.84 | 10.03 |  |
| COc1cccc(/C=C/c2nc3sc4ccccc4n3c(=O)c2-c2ccc(OC(F)(F)F)cc2)c1OCC1CC1 [Example 95] | 10.9 | 23.7 |  |  |  |  |
| COCCOc1c(/C=C/c2nc3sc4ccccc4n3c(=O)c2-c2ccc(OC(F)(F)F)cc2)cccc1OC [Example 96, 2-{(E)-2-[3-Methoxy-2-(2-methoxyethoxy)phenyl]-1-ethenyl}-3-(4-trifluoromethoxy-phenyl)-4H-benzo[4,5][1,3]thiazolo-[3,2-a]pyrimidin-4-one] | 24.8 | 67.7 |  |  |  |  |
| CCOCCOc1c(/C=C/c2nc3sc4ccccc4n3c(=O)c2-c2ccc(OC(F)(F)F)cc2)cccc1OC [Example 97, 2-{(E)-2-[(2-Ethoxyethoxy)-3-methoxyphenyl]-1-ethenyl}-3-(4-trifluoromethoxy-phenyl)-4H-benzo[4,5][1,3]thiazolo-[3,2-a]pyrimidin-4-one] | 20.2 | 39.3 |  |  |  |  |
| COc1cccc(/C=C/c2nc3n(C)c4ccccc4n3c(=O)c2-c2ccc(OC(F)(F)F)cc2)c1OCC1CC1 [Example 98, 2-[(E)-2-(2-Cyclopropylmethoxy-3-methoxyphenyl)vinyl]-3-(4-trifluoromethoxyphenyl)-10-methylpyrimido[1,2-a]benzimidazol-4(10H)-one] | 23 | 30 |  |  |  |  |
